Usually EC50 stands for the concentration that produces a half-maximal response. Broadly, the IC50 is the point on the concentration scale where inhibition reaches its midpoint.

Several values for one entry are separate records, joined by “and”; a condition that tells them apart may be missing. Equal values may be shown once. Read-outs that look alike come from different tables or passages of the source.

Here are results for 2 compounds from US9493464B2, “Wee1 degradation inhibitors” (The Scripps Research Institute, priority 2012, dated 2016).

The subject of one experiment is K328M-Wee1-luciferase. Description: Wee1-luciferase assay (stabilization of K328M-Wee1-luciferase). The format is cell-based. The conditions noted are these: for EC50: read-out: EC50 for stabilization of K328M-Wee1-luciferase. The text has this: Steady-state level of K328M-Wee1-Luciferase (K328M-Wee1-Luc) was divided by Luciferase level (Luc) and plotted.
Similar assays have previously been described; PubChem AID 1807.

The subject of the next experiment is HEK-SW cells. Description: Amyloid β 1-42 production (AlphaLISA). The format is cell-based. Particulars: 1 μM; supernatant at 48 hours post plating; result in words. Here is the method:
HEK-SW cells, which artificially overexpress mutated APP (K670N/M671L), the so-called Swedish mutation, were cultured on D-MEM supplemented with 10% FBS. HEK-SW cells were kindly provided by laboratory of Dr. Dennis Selkoe. HEK-SW cells were plated in 96 well plates (10,000 cells/well) and at 24 hours post plating replaced media and started treatments. […] DAPT, N [(3,5-Difluorophenyl)acetyl]-L-alanyl-2-phenyl]glycine-1,1-dimethylethyl ester, is a known inhibitor of γ-secretase purchased from TOCRIS Bioscience (Ellisville, Mo., USA). Supernatant of cells were collected at 48 hours post plating and concentration of Amyloid β 1-42 (Aβ 1-42) measured by AlphaLISA method (PerkinElmer, Waltham, Mass., USA) following instructions from the company.
Background: Bead proximity is the source of the signal in Alpha formats.

The next experiment deals with CK1δ (Homo sapiens, UniProt P48730). Description: In vitro kinase assay, CK1d, 32P-ATP filter binding (Reaction Biology Corporation). The format is biochemical. The conditions noted are these: 10 μM ATP; read-out: CK1δ IC50. Here is the method: (§1) Compounds were tested in 10-dose IC50 mode with 3-fold serial dilution starting at 50 μM. […] Reactions were carried out at 10 μM ATP. Average and standard deviations of reactions carried out in triplicate are shown.
Sequence of CK1δ (P48730 whole entry, canonical isoform): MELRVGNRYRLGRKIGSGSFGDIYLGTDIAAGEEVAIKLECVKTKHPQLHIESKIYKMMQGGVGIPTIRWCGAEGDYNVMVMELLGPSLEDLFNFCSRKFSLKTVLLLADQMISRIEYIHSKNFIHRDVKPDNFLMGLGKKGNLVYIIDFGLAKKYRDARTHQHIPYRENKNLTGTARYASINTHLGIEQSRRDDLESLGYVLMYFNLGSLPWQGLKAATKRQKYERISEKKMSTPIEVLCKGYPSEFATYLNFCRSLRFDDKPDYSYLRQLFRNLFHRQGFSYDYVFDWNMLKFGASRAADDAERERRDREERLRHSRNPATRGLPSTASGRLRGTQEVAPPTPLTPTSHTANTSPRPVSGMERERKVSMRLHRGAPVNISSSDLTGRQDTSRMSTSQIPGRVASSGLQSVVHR
(§2) In vitro kinase assay to detect CK1 or FLT3 activity: CK1 and FLT3 assays as well as complete kinase profile of 296 kinases was performed by Reaction Biology Corporation. For FLT3 20 μM final Abltide was used, sequence: [[…]]. For CK1 (all isoforms) 20 μM CK1 tide was used, sequence: [KRRRAL[pS]VASLPGL] in a standard kinase assay with ^32P-ATP and purified kinase. Incorporation of ^32P-ATP into the peptide was measured after a filter-binding assay. In-house CK1d inhibition assays were performed using a standard homogenous time-resolved fluorescence resonance energy transfer (TR-FRET) format in 50 mM Hepes, pH 7.0, 2.5 mM MgCl2, 0.1 mg/ml bovine serum albumin, 1 mM DL-dithiothreitol, 0.01% Triton X-100 (all from Sigma-Aldrich). Briefly, the CK1δ substrate (DEKTDDE, containing CK1 consensus sequence; 4 μL of a 500 nM stock solution) is labeled with a small Ulight acceptor dye (PerkinElmer). In the presence of 10 μL of 10 nM CK1δ, the Ulight peptide is phosphorylated at a single amino acid that is specifically recognized by a europium chelate (Eu)-labeled phosphospecific antibody. Assays were performed in the presence of 2 μL of compound at different (measured) concentrations, and reactions were stopped by adding 10 μL of 4 nM Eu-anti-p-Topo-IIa (PerkinElmer) in Lance Detection Buffer (Perkin Elmer). Upon excitation of the Eu-labeled antibody, energy is transferred to the acceptor dye resulting in the emission of detected light at 665 nm.

For experiment [1], the system named is cerebellar granule cell progenitors (GCPs). Description: In vitro proliferation of cerebellar granule cell progenitors (3H-thymidine uptake). Particulars: 24 hours; result in words. The format is cell-based, mouse. The procedure:
GCPs were incubated with DMSO, 5 μM D4476 (known CK1δ and CK1ε inhibitor), or 50 μM D4476 and processed for ^3H-thymidine incorporation after 24 hours. A representative experiment performed in triplicate is shown.

The target in the next experiment is T1, LKB1 (Homo sapiens, UniProt Q15831).
T1 construct: Reaction Biology Corporation (inferred: panel performed there)
T1 sequence (Q15831 1-433): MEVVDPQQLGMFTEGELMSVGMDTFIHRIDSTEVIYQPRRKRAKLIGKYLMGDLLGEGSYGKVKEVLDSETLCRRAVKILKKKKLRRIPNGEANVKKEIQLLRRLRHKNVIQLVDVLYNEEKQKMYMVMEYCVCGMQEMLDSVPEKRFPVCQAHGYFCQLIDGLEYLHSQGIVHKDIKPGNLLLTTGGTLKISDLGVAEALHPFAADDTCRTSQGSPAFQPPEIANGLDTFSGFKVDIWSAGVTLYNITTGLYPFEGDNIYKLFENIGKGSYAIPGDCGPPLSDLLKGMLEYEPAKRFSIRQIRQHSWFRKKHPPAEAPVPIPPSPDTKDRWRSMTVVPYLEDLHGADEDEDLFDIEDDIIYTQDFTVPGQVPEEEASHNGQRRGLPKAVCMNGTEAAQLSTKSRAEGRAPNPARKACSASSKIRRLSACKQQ
T1 sequence (Q7RTN6 1-431 partner): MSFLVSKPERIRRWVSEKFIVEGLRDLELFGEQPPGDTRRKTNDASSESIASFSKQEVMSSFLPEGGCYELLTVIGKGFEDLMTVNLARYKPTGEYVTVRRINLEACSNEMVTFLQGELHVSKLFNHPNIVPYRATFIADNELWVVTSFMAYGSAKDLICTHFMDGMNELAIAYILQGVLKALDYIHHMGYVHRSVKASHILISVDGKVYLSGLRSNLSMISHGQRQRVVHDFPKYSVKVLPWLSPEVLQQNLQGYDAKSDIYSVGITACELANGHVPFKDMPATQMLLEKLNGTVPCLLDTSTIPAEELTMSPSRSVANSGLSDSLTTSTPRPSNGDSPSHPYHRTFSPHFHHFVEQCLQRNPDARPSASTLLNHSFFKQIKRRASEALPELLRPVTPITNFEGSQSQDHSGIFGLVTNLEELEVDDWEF
T1 sequence (Q9Y376 1-341 partner): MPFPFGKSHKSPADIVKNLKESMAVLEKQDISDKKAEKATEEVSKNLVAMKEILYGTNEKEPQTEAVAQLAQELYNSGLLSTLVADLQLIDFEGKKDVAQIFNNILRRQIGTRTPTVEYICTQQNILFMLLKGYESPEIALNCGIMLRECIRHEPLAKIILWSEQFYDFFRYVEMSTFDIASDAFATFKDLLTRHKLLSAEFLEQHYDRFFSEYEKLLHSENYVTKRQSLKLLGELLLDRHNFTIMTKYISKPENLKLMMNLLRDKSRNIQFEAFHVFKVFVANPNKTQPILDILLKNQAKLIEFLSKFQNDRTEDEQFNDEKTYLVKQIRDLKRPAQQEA
Description: In vitro kinase assay, LKB1. In kind it is biochemical. The procedure: as §1
as §2, with “Briefly, the CK1δ substrate (DEKTDDE, containing CK1 consensus sequence; 4 μL of a 500 nM stock solution) is labeled with a small Ulight acceptor dye (PerkinElmer). In the presence of 10 μL of 10 nM CK1δ, the Ulight peptide is phosphorylated at a single amino acid that is specifically recognized by a europium chelate (Eu)-labeled phosphospecific antibody.” left out

Another experiment relates to HeLa cells. Description: PI-FACS cell cycle analysis. The format is cell-based. The conditions noted are these: 24 hours, result in words. An excerpt:
FIG. 11 illustrates inhibition of CK1δ and CK1ε can induce an S/G2/M phase arrest.

For experiment [2], the system named is GCPs in organotypic cerebellar slices. Description: Organotypic cerebellar slice GCP migration assay. The format is cell-based, mice. Particulars: 500 nM, 48 hours; result in words. The text has this:
Cerebella from P7 mice were isolated and sliced using a vibratome. Subsequently, slices were electroporated with venus-GFP to visualize GCPs. […] Many GCPs migrate to the Purkinje cell layer in DMSO treated cells, but fewer do so in SR-653234 or SR-1277 treated slices. […] Phospho-Y15 Cdc2 is a measure of Wee1 activity. Skp-1 is used as a loading control.

In the case of `O=[N+]([O-])c1cccc2[nH]c(CNc3nc(N4CCOCC4)nc4c3ncn4-c3ccsc3)nc12` [SR-1277], in the experiment on K328M-Wee1-luciferase (0.25 µM), the “% Inhibition, Wee1 Degradation” value came to 100.0%. Besides, the EC50 in the experiment on K328M-Wee1-luciferase amounted to 40 nM. For the same compound, the Aβ1-42 production entry in the experiment with HEK-SW cells is recorded as “inhibit Aβ1-42 production”. Moreover, at CK1δ, the IC50 was found to be 49 nM. For the same compound, in experiment [1], the “inhibition of GCP proliferation (3H-thymidine)” value is recorded as “robust inhibition”. Besides, at LKB1 (result in words), the “activity toward LKB1” value was “inactive”. For the same compound, the cell cycle arrest entry in the experiment with HeLa cells is given as “induced an S/G2/M arrest”. Further, in experiment [2], the “GCP migration to the Purkinje cell layer” value is “fewer do so”.

With `c1ccc2[nH]c(CNc3nc(N4CCOCC4)nc4c3ncn4-c3ccsc3)nc2c1` [SR-653234], the EC50 in the experiment with K328M-Wee1-luciferase (HeLa cells) is 624 nM. For the same compound, the “stabilization of K328M-Wee1-luciferase” value in the experiment on K328M-Wee1-luciferase (HeLa cells, result in words) is given as “stabilizes Wee1-luciferase”. In the experiment with K328M-Wee1-luciferase (at 250 nM, reported relative to SR-1277 = 100%), the “% Inhibition, Wee1 Degradation” value was 56.8%. Besides, in the experiment with HEK-SW cells, the Aβ1-42 production result is given as “inhibit Aβ1-42 production”. For the same compound, the IC50 at CK1δ is 161 nM and 540 nM; against LKB1 it was 92 nM. The “inhibition of GCP proliferation (3H-thymidine)” value in experiment [1] is given as “robust inhibition”. Moreover, in the experiment with HeLa cells, the cell cycle arrest result is “induced an S/G2/M arrest”. For the same compound, the “GCP migration to the Purkinje cell layer” value in experiment [2] was “fewer do so”.
